From US9284303B2, “Benzimidazole cannabinoid agonists bearing a substituted heterocyclic group” (priority 2006, dated 2016)
Like-named read-outs stand apart in the source and are kept apart here.

Key:
[1] = target: T1, human CB2 (hCB2) receptor (Homo sapiens, UniProt P34972); assay: Inhibition of forskolin-activated cAMP production upon activation of hCB2 (HTRF), CHO-K1 cells; type: cell-based; conditions: for ratio CB2 agonism over CB1 agonism: Table C-1, selectivity hCB2 over hCB1; for EC50: forskolin-activated cAMP, pEC50=-log(EC50); for ratio CB2 over CB1 agonism: Table C-3, comparison of art compounds A to E with compounds of the invention
T1 construct: expressed in transfected cells; host or cells: CHO-K1
Experimental: (§1) Functional activity of the test compounds was assessed by measuring their potency to inhibit forskolin-activated cAMP production upon activation of the human CB1 (hCB1) or human CB2 (hCB2) receptor through homogenous time resolved fluorescence (HTRF) assays.
(§2) Before the experiments, medium was removed, cells were washed with PBS/EDTA (140 mM NaCl, 1 mM Naz-EDTA, 8 mM Na2HPO4.2H2O, 8.5 mM KH2PO4, 2.7 mM KCl, 21 mM glucose), resuspended in stimulation buffer (HBSS 1x, IBMX 1 mM, Hepes 5 mM, MgCl2 10 mM, BSA 0.1%, pH 7.4). Cells were diluted to a concentration of 8.10^5 cell/ml for hCB1 experiments and 10^6 cells/ml for hCB2 experiments. Assays were performed using the cAMP Dynamic HTRF kit (CIS bio international, France) according to the recommendations of the manufacturer.
Then, 20 μl of the diluted hCB2-CHO-K1 cells was added (20,000 cells/well). After 30 minutes incubation in dark at room temperature, 10 μl cAMP-XL665 and 10 μl anti-cAMP cryptate (both at a final dilution of 1/100) was added to the cells.

[2] = target: T2, human CB1 (hCB1) receptor (Homo sapiens, UniProt P21554); assay: Inhibition of forskolin-activated cAMP production upon activation of hCB1 (HTRF), CHO-K1 cells; type: cell-based; conditions: CB1 pEC50, hCB1-CHO-K1 cells, forskolin-activated cAMP, pEC50=-log(EC50)
T2 construct: expressed in transfected cells; host or cells: CHO-K1
Experimental: as §1
as §2, with “CHO-K1 cells stably transfected with either hCB1 or hCB2 were grown up to 80-90% confluence in T175 Falcon flasks in DMEM/NUT MIX F-12 culture medium complemented with 2% Solution A (5.10^6 IU/l penicillin G, 5 g/l streptomycin sulphate, 5.5 g/l pyruvate, 14.6 g/l L-glutamine, 1M NaOH) and 10% foetal calf serum. Before” for “Before”
For CB1, each well of a 96 flat bottom black polystyrene assay plate (Costar) was filled with 25 μl stimulation buffer containing 6 μM forskolin and either test compound (in 2% DMSO), 2% DMSO or 2 μM CP55490 (in 2% DMSO). Then, 25 μl of the diluted cells was added (20,000 cells/well). After 30 minutes incubation in dark at room temperature, 25 μl cAMP-XL665 and 25 μl anti-cAMP cryptate (both at a final dilution of 1/80) was added to the cells.
After equilibration of the reaction mixtures for 1 to 24 hours in dark at room temperature, fluorescence was measured at 665 nm and 620 nm using a Discovery microplate fluorescence counter (Perkin Elmer), and the signal ratio of 665 nm/620 nm was calculated. The signal ratios of the test compounds were expressed relative to the signal ratios of the DMSO control (maximal signal ratio, no inhibition of cAMP) and CP55490 or WIN55212-2 for hCB1 and hCB2, respectively (minimal signal ratio, maximal inhibition of cAMP). From the dose response curves generated for each test compound, the dose at which 50% of the maximal inhibition of cAMP level is observed (EC50, expressed in the Tables as pEC50=−log(EC50) values) and the level of inhibition reached with 10 μM of the test compound compared to CP55490 (for hCB1) or WIN55212-2 (for hCB2) was calculated.

[3] = hCB2-CHO-K1 cells, read-out: CB2 pEC50 (converted)

T1 sequence (P34972 whole entry): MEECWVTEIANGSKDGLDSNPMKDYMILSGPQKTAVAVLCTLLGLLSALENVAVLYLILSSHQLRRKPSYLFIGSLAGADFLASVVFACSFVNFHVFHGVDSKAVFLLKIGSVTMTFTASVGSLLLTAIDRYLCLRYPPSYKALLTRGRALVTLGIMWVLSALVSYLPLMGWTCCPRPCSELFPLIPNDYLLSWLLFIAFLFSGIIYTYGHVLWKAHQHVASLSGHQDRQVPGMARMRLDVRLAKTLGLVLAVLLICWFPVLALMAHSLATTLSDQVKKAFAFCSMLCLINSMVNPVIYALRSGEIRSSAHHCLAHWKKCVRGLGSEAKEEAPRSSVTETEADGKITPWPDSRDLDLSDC
T2 sequence (P21554 whole entry): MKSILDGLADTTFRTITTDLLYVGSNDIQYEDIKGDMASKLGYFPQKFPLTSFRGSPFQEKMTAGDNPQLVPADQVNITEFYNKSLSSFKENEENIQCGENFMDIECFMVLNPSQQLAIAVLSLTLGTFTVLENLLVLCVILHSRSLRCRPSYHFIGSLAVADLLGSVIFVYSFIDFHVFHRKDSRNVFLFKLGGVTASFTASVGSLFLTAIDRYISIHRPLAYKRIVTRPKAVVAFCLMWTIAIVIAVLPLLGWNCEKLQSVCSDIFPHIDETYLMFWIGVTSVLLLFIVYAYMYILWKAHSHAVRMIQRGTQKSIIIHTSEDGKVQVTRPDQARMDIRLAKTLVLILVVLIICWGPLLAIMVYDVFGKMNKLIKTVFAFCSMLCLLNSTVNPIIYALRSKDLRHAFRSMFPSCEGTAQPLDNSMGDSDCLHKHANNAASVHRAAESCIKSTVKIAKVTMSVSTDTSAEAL

Compound	ratio CB2 agonism over CB1 agonism [1]	EC50 [1, 3]	EC50 [2]	ratio CB2 agonism over CB1 agonism ([1]; listed as 58)	EC50 ([1]; CB2 pEC50, hCB2-CHO-K1 cells)	ratio CB2 agonism over CB1 agonism ([1]; listed as 64)	ratio CB2 over CB1 agonism [1]	ratio CB2 agonism over CB1 agonism ([1]; listed as 63)
CC(C)(C)c1nc2cc(S(=O)(=O)c3ccc(C(N)=O)cn3)ccc2n1CC1CCOCC1 [Co. No. 33]	1884	0.00309 µM	5.75 µM					
CO[C@H]1CC[C@H](Cn2c(C(C)(C)C)nc3cc(S(=O)(=O)c4ccnc(F)c4)ccc32)CC1 [Co. No. 160]	>2344	0.00427 µM	> 10 µM					
CC(C)(C)c1nc2cc(S(=O)(=O)c3ccc(S(N)(=O)=O)s3)ccc2n1CC1CCOCC1 [Co. No. 47]	871	0.0017 µM	1.48 µM					
COc1ncc(S(=O)(=O)c2ccc3c(c2)nc(C(C)(C)C)n3CC2CCOCC2)cn1 [Co. No. 111]	372	0.00115 µM	0.427 µM					
CC(C)(C)c1nc2cc(S(=O)(=O)c3ncc(S(C)(=O)=O)cc3Br)ccc2n1CC1CCOCC1 [Co. No. 76]	>832	0.012 µM	> 10 µM					
CC(C)(C)c1nc2cc(S(=O)(=O)c3ccnc(F)c3)ccc2n1CC1CCOC(=O)CC1 (stereo not shown) [Co. No. 145]	>3090	0.00324 µM	> 10 µM					
CC(C)(C)c1nc2cc(S(=O)(=O)c3ccc(S(C)(=O)=O)s3)ccc2n1CC1CCOCC1 [Co. No. 58]		0.000832 µM	1.82 µM	2188				
CC(C)(C)c1nc2cc(S(=O)(=O)c3cc(S(C)(=O)=O)cnc3O)ccc2n1CC1CCOCC1 [Co. No. 77]	1303	0.00195 µM	2.57 µM					
CC(C)(C)c1nc2cc(S(=O)(=O)c3ccnc(F)c3)ccc2n1CCC1OCCO1 [Co. No. 165]	>923	0.0107 µM	> 10 µM					
CC(C)(C)c1nc2cc(S(=O)(=O)c3ccnc(F)c3)ccc2n1C[C@H]1CC[C@@](C)(O)CC1 [Co. No. 153]	>11749	0.000851 µM	> 10 µM					
CC(C)(C)c1nc2cc([S+]([O-])c3cc[n+]([O-])cc3C(F)(F)F)ccc2n1CC1CCOCC1 (stereo not shown) [Co. No. 95]		0.00575 µM	> 10 µM					
CC(C)(C)c1nc2cc(S(=O)(=O)c3cccc(C(F)(F)F)n3)ccc2n1CC1CCOCC1 [Co. No. 110]	1905	0.00055 µM	1.05 µM					
CC(C)(C)c1nc2cc([S+]([O-])c3ccc(Cl)nn3)ccc2n1CC1CCOCC1 (stereo not shown) [Co. No. 31]	353	0.0012 µM	0.427 µM					
CC(C)(C)c1nc2cc(S(=O)(=O)c3sc(S(C)(=O)=O)cc3Br)ccc2n1CC1CCOCC1 [Co. No. 64]			1.86 µM		0.000479 µM	3920		
CC(C)(C)c1nc2cc(S(=O)(=O)c3ccnc(C(F)(F)F)c3)ccc2n1CC1CCOCC1 [Co. No. 119]	>1413	0.00708 µM	> 10 µM					
Cc1noc(C)c1S(=O)(=O)c1ccc2c(c1)nc(C(C)(C)C)n2CC1CCOCC1 [Co. No. 15]	556	0.00105 µM	0.575 µM					
CC(C)(C)c1nc2cc(S(=O)(=O)c3ccnc(OCCCN4CCOCC4)c3)ccc2n1CC1CCOCC1 [Co. No. 135]	>4571	0.00219 µM	> 10 µM					
CC(C)(C)c1nc2cc(S(=O)(=O)c3ccnc(F)c3)ccc2n1CC1CCOCC1 [Co. No. 25]	495	0.000813 µM	0.407 µM				495	

Compound	ratio CB2 agonism over CB1 agonism [1]	EC50 [1, 3]	EC50 [2]	ratio CB2 agonism over CB1 agonism ([1]; listed as 58)	EC50 ([1]; CB2 pEC50, hCB2-CHO-K1 cells)	ratio CB2 agonism over CB1 agonism ([1]; listed as 64)	ratio CB2 over CB1 agonism [1]	ratio CB2 agonism over CB1 agonism ([1]; listed as 63)
COc1cc(S(=O)(=O)c2ccc3c(c2)nc(C(C)(C)C)n3CC2CCOCC2)ccn1 [Co. No. 70]	2570	0.00055 µM	1.41 µM					
CC(C)(C)c1nc2cc(S(=O)(=O)c3ccnc(OC(F)F)c3)ccc2n1CC1CCOCC1 [Co. No. 14]	4898	0.000776 µM	3.8 µM				4898	
CC(C)(C)c1nc2cc(S(=O)(=O)c3ccnc(CCCCN)c3)ccc2n1CC1CCOCC1 [Co. No. 139]	>759	0.0132 µM	> 10 µM					
CC(C)(C)c1nc2cc(S(=O)(=O)c3ccnc(F)c3)ccc2n1CC1CCCCO1 (stereo not shown) [Co. No. 113]	302	0.00263 µM	0.794 µM					
CCC(C)(C)c1nc2cc(S(=O)(=O)c3ccc(OC)nn3)ccc2n1CC1CCC1 [Co. No. 26]	676	0.000794 µM	0.537 µM					
CC(C)(C)c1nc2cc(S(=O)(=O)c3ccc[n+]([O-])c3)ccc2n1CC1CCOCC1 [Co. No. 34]	4732		7.41 µM		0.00158 µM			
CC(C)(C)c1nc2cc([S+]([O-])c3cc[n+]([O-])cc3)ccc2n1CC1CCOCC1 (stereo not shown) [Co. No. 2]		0.038 µM	> 10 µM					
CC(=O)c1ccc([S+]([O-])c2ccc3c(c2)nc(C(C)(C)C)n3CC2CCOCC2)nc1 (stereo not shown) [Co. No. 32]	2951	0.00257 µM	7.59 µM					
CC(=O)NCCCOc1cc(S(=O)(=O)c2ccc3c(c2)nc(C(C)(C)C)n3CC2CCOCC2)ccn1 [Co. No. 132]	>7079	0.00141 µM	> 10 µM					
COCCCn1cc(S(=O)(=O)c2ccc3c(c2)nc(C(C)(C)C)n3CC2CCOCC2)cn1 [Co. No. 161]	2951	0.00182 µM	5.25 µM					
CC(C)(C)c1nc2cc(S(=O)(=O)c3ccnc(OCCCN)c3)ccc2n1CC1CCOCC1 [Co. No. 131]	>631	0.0158 µM	> 10 µM					
CCCCN(C)c1cc(S(=O)(=O)c2ccc3c(c2)nc(C(C)(C)C)n3CC2CCOCC2)ccn1 [Co. No. 138]	473	0.00174 µM	0.832 µM					
COc1ncc(S(C)(=O)=O)cc1S(=O)(=O)c1ccc2c(c1)nc(C(C)(C)C)n2CC1CCOCC1 [Co. No. 78]	>1380	0.00724 µM	> 10 µM					
CC(C)(C)c1nc2cc([S+]([O-])c3cc[n+]([O-])cc3Br)ccc2n1CC1CCOCC1 (stereo not shown) [Co. No. 86]		0.012 µM	> 10 µM					
CC(=O)N1CCC(Cn2c(C(C)(C)C)nc3cc(S(=O)(=O)c4cc[n+]([O-])cc4)ccc32)CC1 [Co. No. 143]		0.017 µM	> 10 µM					
CC(C)(C)c1nc2cc(S(=O)(=O)c3ccnc(/C=C/Cl)c3)ccc2n1CC1CCOCC1 [Co. No. 125]	>3981	0.00251 µM	> 10 µM					
COc1ccc(CNCCc2cc(S(=O)(=O)c3ccc4c(c3)nc(C(C)(C)C)n4CC3CCOCC3)ccn2)cc1 [Co. No. 157]	>2884	0.00347 µM	> 10 µM					
CC(C)(C)c1nc2cc(S(=O)(=O)c3sc(S(C)(=O)=O)cc3Br)ccc2n1CC1CCOCC1 [Co. No. 63]		0.000977 µM	2.82 µM					2818
